This passage reports melting point results from a melting point compilation (Tetko et al.; mined from patent text by program, amines drawn as free bases though some values may be those of a salt).

Usually melting point stands for the temperature, or range, at which the solid turns liquid.

As for `CCCc1cc2ccc(CC(=O)O)cc2[nH]1`, the melting point fell in the range of 85 to 87 °C.
As for `CCCCc1nc(SC)c(C(=O)OCC)n1Cc1ccccc1-c1ccccc1S(=O)(=O)NC#N`, the figure is 105 °C; as for `CC(C)(C)c1ccc(CCC(=O)C2CCCCCC2)cc1NC(=O)CC1c2ccccc2Oc2ccccc21`, 155 to 156 °C; as for `CCOC(=O)c1cc2c(cn1)[nH]c1ccc(C(C)O)cc12` (configuration not stated), 125 to 130 °C.
As for `Cc1cccc(NC(=O)NC2N=C(c3ccccc3F)c3ccccc3N(CC(=O)NC3C4CC5CC(C4)CC3C5)C2=O)c1` (configuration not stated), the figure is 245 to 246 °C; as for `CC(C(=O)O)c1ccc(-n2cc(Br)cn2)cc1` (configuration not stated), 154 to 155 °C; as for `COc1cc(COc2nn(-c3ccccc3)cc2C=O)ccc1OCc1nc(-c2ccco2)oc1C`, 137 to 138 °C.
With `CC(Cl)(Cl)C(NC(=O)c1cc(F)cc(F)c1)Nc1c(Nc2cccnc2)c(=O)c1=O` (configuration not stated), the melting point lay in the range of 231 to 232 °C.
For `C=CCc1c(O)c(=O)[nH]c2cc(Cl)ccc2c1=O`, the melting point lay within 172 to 174 °C.
The compound `O=c1[nH]c2cc(Cl)c(Cl)cc2[n+]([O-])c1-c1ccccc1O` yielded a melting point of 266 to 268 °C.
Next, `CCC(=O)NC1CCC(CNc2nc3c(s2)CCOc2ccccc2-3)CC1` (configuration not stated): 70 to 73 °C.
As for `NC(=O)c1cccc2nc3n(c12)CCCN3c1ccc(Cl)cc1Cl`, the figure is 198 to 200 °C; as for `O=C(C=C1OC(=O)c2ccccc21)c1ccccc1`, 105 °C; as for `CC(=O)Nc1ccc(C=O)cc1Cl`, 110 to 113 °C.
In turn, `NC(=O)c1cnn2cccc2c1NC1CCCCCC1` registered a melting point of 279 °C.
As for `COc1ccc(OC)c2c1C(=O)C=C(SCCCCCCCCCCC(=O)O)C2=O`, the figure is 146 to 147 °C; as for `Cc1oc(-c2ccccc2)nc1CCOc1ccc(CCC(=O)NC(N)=O)cc1`, 177 to 178 °C.
In turn, `C=C(C(=O)OC)c1ccc2c(=O)c3ccccc3ccc2c1` returned a melting point of 153 to 156 °C.
`O=C1C(=O)c2ccc(F)cc2C2=C1SCC1(CCN(CC(O)Cc3ccccc3)CC1)O2` (configuration not stated) returned a melting point of 76 to 77 °C.
As for `CC(C)c1nc(CCCOCc2ccccc2)n(CCO)c1Sc1cc(Cl)cc(Cl)c1`, the figure is 104 to 106 °C.
On to `Cc1cc(-c2ccc(Cl)cc2)nc2c(C(=O)Nc3cccc(S(C)(=O)=O)c3)cnn12`, for which the melting point was in the range of 250 to 251 °C.
Compound `OC1OC2C(Br)C3CC1C2C3` (configuration not stated) returned a melting point of 61 °C.
For the compound `CNC(=O)Cc1cccc2ccoc12`, the melting point was 138 to 142 °C.
Take `Cn1ncnc1COc1nn2c(-c3ccccc3)nnc2cc1-c1ccc(Cl)s1`: the melting point fell in the range of 244 to 247 °C.
Compound `COc1ccc2c(=O)c(-c3ccc(F)cc3)c(-c3ccc(S(N)(=O)=O)cc3)oc2c1` registered a melting point of 245 °C.
Next, `CCc1ncc2n1N=C(c1ccc(N)cc1)c1cc3c(cc1C2)OCO3`: 135 to 138 °C.
`CN(C)CCN1CCC(Nc2nc3ccccc3n2Cc2ccc(F)cc2)CC1`: the melting point amounted to 166 °C.
Consider `Oc1cccc2c1CCC(c1ccccn1)O2` (configuration not stated), for which the melting point was 246 to 248 °C.
Next, `CC(=O)c1cc(Oc2ncccc2C(=O)NC[C@H]2CC[C@H](C(C)(C)O)CC2)ccc1Cl`: 106 to 108 °C; `CC(C)(C)OC(=O)N(C[C@H](O)COc1ccc(O)cc1)C1CNC1`: 130 to 134 °C.
As for `CC(C)(CCc1ccccc1)NCC(O)CO` (configuration not stated), the melting point lay within 74 to 77 °C.
As for `Cc1c(OCCn2ccnc2)ccc2c1CC/C(=C\c1cccs1)C2=O`, the melting point was in the range of 182 to 184 °C.
In the case of `NC(=O)N(O)CCNC(=O)c1cccc(Oc2ccc(Cl)c(Cl)c2)c1`, the melting point fell in the range of 153 to 156 °C.
Take `CN1CCC(c2c[nH]c3ccc(NC(=O)C4CCC4)nc23)CC1`: the melting point worked out at 104 °C.
The compound `Cc1cccc2c1C=Cc1ccccc1C2Cl` (configuration not stated) returned a melting point of 158 to 160 °C.
Next, `CCOc1ccc(-c2cn(C)c(SCC)n2)cc1`: 98.2 °C.
As for `O=Cc1ccc(OC2OC(CO)C(O)C(O)C2O)cc1` (configuration not stated), the melting point turned out to be 177 °C.
Regarding `CC1(N)CCN(c2c(F)c(F)c3c(=O)c(C(=O)O)cn(C4CC4)c3c2F)C1` (configuration not stated), the melting point fell in the range of 280 to 282 °C.
In turn, `Nc1sc2c(c1C(=O)c1ccc(Cl)cc1)CCN(CCc1ccccc1)C2` showed a melting point of 148 to 150 °C.
Next, `O=C1OC(CCI)C(O)=C1O` (configuration not stated): 150 to 151 °C; `O=C(NNC(=O)c1occc1-c1cccc(OCc2ccccc2)c1)c1ccc(O)c([N+](=O)[O-])c1`: 171 to 173 °C.
As for `Clc1ccc2c(c1)N=C(N1CCN[C@@H](Cc3ccccc3)C1)c1ccccc1N2`, the melting point was in the range of 79 to 92 °C.
For `N#Cc1ccc(N2CCC(=O)CC2)nc1`, the melting point was in the range of 171 to 173 °C.
As for `COc1ccc(O)cn1`, the figure is 80 to 82 °C.
`CC(C)=NOCc1nc2c(N)nc3cc(Br)ccc3c2s1`: the melting point lay in the range of 211 to 213 °C.
Take `COc1ccc(C(N)=O)c(N)c1`: the melting point was in the range of 152 to 156 °C.
Consider `O=C1CCC2=C1C(c1ccc(F)c(C(F)(F)F)c1)C1=C(CCS1)N2` (configuration not stated), for which the melting point was determined as 254 °C.
In the case of `COc1ccc2c3c1c(C)c(-c1ccc(O)cc1)n3CC(CCN1CCN(c3cc(C)ccn3)CC1)O2` (configuration not stated), the melting point was 193 to 195 °C.
`Cc1ccc(Oc2cccc(NC(=O)c3ccn4c3CSC4c3cccnc3)c2)cc1` (configuration not stated) yielded a melting point of 110 °C.
As for `CN1CCN(S(=O)(=O)c2ccc([C@@H](CC3CCCC3)C(=O)O)cc2)CC1`, the melting point lay in the range of 202 to 203 °C.
Regarding `O=C(CCc1oc(-n2cncn2)nc1-c1ccc(Cl)cc1)NCCCl`, the melting point is 157 to 158 °C.
Next, `COc1ccc(S(=O)(=O)N2CCc3cccc(-c4ccc(N)cc4)c32)cc1`: 184 to 186 °C; `N#Cc1cc(Br)c(OC(=O)OCOC(=O)c2ccc(Oc3ccc(C(F)(F)F)cc3Cl)cc2[N+](=O)[O-])c(Br)c1`: 122 to 123 °C.
The compound `O=C(c1ccccc1C(c1ccc(O)cc1)c1ccc(O)cc1)N(c1ccccc1)c1ccccc1` yielded a melting point of 262 to 263 °C.
In turn, `Clc1ccc(Nc2nnc(Cc3ccncc3)c3ccncc23)cc1` returned a melting point of 220 to 221 °C.
As for `C#CCOc1nc(-n2nc3ccc(Cl)cn3c2=O)c(F)cc1C#N`, the figure is 207 to 209 °C; as for `Nc1ccc(-c2cc3ccccn3c2C(=O)CCC(=O)O)cc1`, 86 to 88 °C.
As for `CCCOc1ccc(CO)cc1N`, the melting point is 94 to 95 °C.
Next, `CC(C)c1cc(O)cc2c1C(=O)N(CCl)S2(=O)=O`: 149 to 150 °C; `COc1ccc(C2(C#Cc3cnc(NC(C)=O)nc3)CCC(=O)CC2)cc1OC1CCCC1`: 170 to 171 °C; `O=C(O)c1cn(C2CCN(c3c(F)cc4c(=O)c(C(=O)O)cn(C5CC5)c4c3F)C2)nn1` (configuration not stated): 222 to 225 °C.
Compound `C=Cc1cc(CNC(=O)C(C)=Cc2ccc(C(C)(C)C)cc2)cc(F)c1NS(C)(=O)=O` showed a melting point of 136 to 138 °C.
As to `CCOC(=O)c1ccc(OCCCCCCCc2cc(C)no2)cc1`, the melting point fell in the range of 60 to 61 °C.
`O=C(Nc1ccc(Oc2ccnc(NCC3OCCO3)n2)c2ccccc12)c1cc(F)cc(N2CCCCC2)c1` returned a melting point of 96 to 98 °C.
`COc1ccc(-c2cc(C(=O)NCCCCCCc3ccccc3)cc(-c3cccc(C(F)(F)F)c3)c2OCCO)cc1` came in with a melting point of 153 to 159 °C.
With `Cc1nnc2ccc(-c3ccc(N)c(C(F)(F)F)c3)nn12`, the melting point was in the range of 240 to 242 °C.
Next, `CN(C=O)c1ccccc1C(=O)COS(C)(=O)=O`: 67 to 69 °C.
Compound `CN(C)c1ccc(Nc2cccc3c2C(=O)N(C2CCC(=O)NC2=O)C3=O)cc1` (configuration not stated) came in with a melting point above 260 °C.
With `CCOCCOC(=O)C1=C(C)NC(C#N)=C(C(=O)OCC)C1c1cccc([N+](=O)[O-])c1` (configuration not stated), the melting point was 89 to 91 °C.
The compound `COC(=O)c1cc2c(C)ccc(C)c2n1C(=O)OC` gave a melting point of 75 to 80 °C.
Compound `CN(C=O)CC1(N(C)C)CCCCC1` registered a melting point of 59 to 60 °C.
Next, `CN1C(=O)C2(COc3cc4c(cc32)OCCO4)c2c(C(=O)O)cccc21` (configuration not stated): 297 to 299 °C.
`N#Cc1ccc(-c2ccncc2OC2SCC(O)C(O)C2O)cc1` (configuration not stated): the melting point stood at 238 °C.
`CC(C)(C)OC(=O)c1nc(-c2ccccc2)[nH]c1-c1ccncc1` returned a melting point of 205 to 206 °C.
In the case of `Cc1ccnc(Sc2nc(-c3ccc(Cl)cc3)c(CCC(=O)O)o2)n1`, the melting point was in the range of 174 to 175 °C.
Regarding `CN(Cc1nc(-c2cc(C(C)(C)C)c(O)c(C(C)(C)C)c2)cn1COCC[Si](C)(C)C)c1ccc([N+](=O)[O-])cc1`, the melting point was 149 to 151 °C.
Next, `COc1cc(C(N)C(N)=O)c(F)cc1Cl` (configuration not stated): 162 °C.
For the compound `CCN(CCO[N+](=O)[O-])C(=O)COC(=O)c1cc(S(N)(=O)=O)c(Cl)cc1NCc1ccco1`, the melting point is 60 to 62 °C.
Compound `Nc1ncc(-c2ccccc2)nc1Br` had a melting point of 148 to 152 °C.
Compound `O=S(=O)(Cc1cccc2ccccc12)c1ccccc1` yielded a melting point of 89 °C.
Take `COc1nc(C)cnc1N(C(=O)OCC(C)C)S(=O)(=O)c1cccnc1-c1ccc([Si](C)(C)C)cc1`: the melting point is 132 to 134 °C.
`COc1cc(CCc2ccccc2OCc2ccccc2)ncc1C(=O)O` showed a melting point of 182 °C.
With `C=Cc1ccccc1C(=O)n1nnc2ccccc2c1=O`, the melting point is 120 °C.
For the compound `CN(C)C(=O)c1nc(-c2ccccc2)nc2[nH]c3cc(Cl)ccc3c12`, the melting point lay in the range of 232 to 233 °C.
As for `CCOC(=O)N1CCCC2(OCCO2)C1Cc1c[nH]c2ccccc12` (configuration not stated), the figure is 122 to 125 °C; as for `C=CCOC(=O)CC[C@H](NC(=O)Nc1ccc(COC(=O)Oc2ccc([N+](=O)[O-])cc2)cc1)C(=O)OCC=C`, 106 to 107 °C; as for `C[C@@H](N1CCN(S(=O)(=O)c2ccc([N+](=O)[O-])cc2)CC1)[C@](O)(Cn1cncn1)c1ccc(F)cc1F`, 160 to 162 °C.
